Reference: patent publication US11800867B2, “Methods of repelling biting arthropods, reducing pathogen spread and treating arthropod infestation” (priority 2016, dated 2023)
Where “and” joins values, the source holds several entries; their conditions need not be identical. Equal values may be shown once. Entries after “also recorded” stand apart in the source; their conditions may differ.

Tests used:
Assay type in all cases: in vivo
[1] = system: cat fleas (Ctenocephalides felis); test: Filter paper choice test of repelling action (Example 6); details: for Raw data: number of fleas on Treated half of treated arena, per replicate / Raw data: number of fleas on Untreated half of treated arena, per replicate: 0.5% nootkatone in ethanol, Replicates 1-5
Description: (§1) An in vitro laboratory trial was required to assess the repelling action of nootkatone applied to filter paper against cat fleas (Ctenocephalides felis), deer ticks (Ixodes scapularis), bed bugs (Cimex lectularius), and termites (Reticulitermes flavipes) in a choice test design.
(§2) The sponsor provided a sample of nootkatone (98%), which was diluted in ethanol to a 0.5% concentration. The treatment was applied to filter paper at a rate of 1 mL for a 9 cm filter paper disc, and a rate of 1.9 mL for a 15 cm filter paper disc. A negative control group, consisting of untreated filter paper, was also assessed for comparison purposes.
Cat fleas: Treated and untreated filter papers were cut in half and fitted into the bottom of a 15 cm clear plastic cylinder. Treated replicates received one half treated and one half untreated filter paper; negative control replicates received only untreated filter paper.
Cat fleas: Cat fleas were introduced to the untreated side of each arena, and their distribution (on or under each paper) was recorded at +1, +4, and +24 hours post-introduction.
(§3) The number of insects in each location was converted to a percentage, for which the average and standard error were calculated across all five replicates.
(§4) Percent repellency was calculated with the following formula: % repellency=(1−((t/T)/(c/C)))*100 • Where t=number of insects on treated side of treated arena • T=total number of insects in treated arena • c=average number of insects on right side of untreated arenas • C=average total number of insects in untreated arenas

[2] = system: fire ants (Solenopsis invicta); test: Treated filter paper knockdown (KD) and mortality trial (Example 4); details: Nootkatone 1% in ethanol on filter paper
Description: (§5) A laboratory trial was conducted to assess the efficacy of nootkatone applied to filter paper against aphids (Schizaphis gramium), dust mites (Dermatophagoides sp.), termites (Reticulitermes flavipes), deer ticks (Ixodes scapularis), biting midges (Culicoides sp.), fire ants (Solenopsis invicta), and mosquitoes (Aedes aegypti and Culex), in terms of knockdown (KD) and mortality. One concentration (1% in ethanol) of nootkatone was assessed for most species, but three concentrations (0.25%, 0.5%, and 1% in ethanol) were assessed for mosquitoes. A negative control group, consisting of filter paper treated with ethanol, was also assessed for comparison purposes for each species.
(§6) Test systems were introduced to treated filter paper, allowed to dry, and then introduced into treatment chamber, where treated arthropods were monitored at intervals up to 72 hours. If 100% mortality was obtained prior to 72 hours, the individual study was halted.
Fire ants—5 replicates of 10 insects were tested per treatment. A Petri dish lid 3.54 inches (9 cm) in diameter was inverted and serve as the substrate for a 2.75 inch (7 cm) treated filter paper circle. The small Petri dish bottom was inverted over the paper and had its sides treated with Fluon® to prevent climbing and force exposure with the filter paper. The entire Petri dish was enclosed with two rubber bands.
(§7) Readings were discontinued if treated mortality reaches […], or control mortality exceeds 20%.

Aedes aegypti mosquitoes = test: Choice design repellency test, treated collagen membrane-covered wells filled with warm blood (Example 1); details: 1% nootkatone compositions (ethanol and acetone based); probing recorded during 20 min
Description: In the following example, the effectiveness of 1% nootkatone compositions in repelling mosquitoes was determined in comparison with DEET in a choice design test.
Compositions of 1% nootkatone were formulated in either ethanol or acetone and coated onto collagen membrane-covered wells filled with warm blood.
Two hundred and fifty female mosquitoes aged 4-8 days were sucrose deprived for 18 hr and then introduced to the collagen membrane-covered wells. Mosquito probing of the treated collagen membranes was recorded every 2 min during a 20 min period.
Five replicates were performed. A 20% DEET composition was used as a positive control and an ethanol only solution served as a negative control.

[3] = system: termites (Reticulitermes flavipes); test: Treated filter paper knockdown (KD) and mortality trial (Example 4); details: Nootkatone 1% in ethanol on filter paper
Description: as §5, §6
(§8) Termites—3 replicates of 10 termites were tested per treatment. One long glass tube with screened ends (to provide ventilation) was used for each test container. Test containers were placed into a larger container to prevent escapes, and were kept in darkness and at high humidity for the duration of the experiment. Filter papers were cut into strips and fitted inside the glass tubes. Two paper strips were pushed end to end to form one continuous strip, leaving a 2 mm gap running the entire length of the tube for viewing termite activity.
as §7

[4] = system: aphids (Schizaphis gramium); test: as above; details: Nootkatone 1% in ethanol on filter paper
Description: as §5, §6, §7

[5] = system: termites (Reticulitermes flavipes); test: Filter paper choice test of repelling action (Example 6)
Description: as §1, §2
as §8, with “Termites:” for “Termites—3 replicates of 10 termites were tested per treatment.”, “Treated and untreated filter” for “Filter”, “Treated replicates received one treated and one untreated paper; negative control replicates received two untreated strips. The two” for “Two”
Termites: Termites were placed in the center of each test container and left to distribute undisturbed for 24 hours. At the end of the exposure period, the distribution (on or under each filter paper) of termites was recorded.
as §3, §4

[6] = 0.5% nootkatone in ethanol on filter paper
[7] = 0.5% nootkatone in ethanol, 24 Hours post introduction, Replicates 1-3

C=C(C)[C@@H]1CCC2=CC(=O)C[C@@H](C)[C@]2(C)C1 [Nootkatone, nootkatone]
Repellency (conclusion in words) [1, 6]: some potential repellency
Raw data: number of fleas on Treated half of treated arena, per replicate ([1]; 1 Hour post introduction): 3 (2×) and 8 and 6 and 4
Raw data: number of fleas on Untreated half of treated arena, per replicate ([1]; 1 Hour post introduction): 2 and 4 (2×) and 7 and 3
Raw data: number of fleas on Treated half of treated arena, per replicate ([1]; 4 Hours post introduction): 2 and 1 and 3 (2×) and 4
Raw data: number of fleas on Untreated half of treated arena, per replicate ([1]; 4 Hours post introduction): 9 and 7 and 6 (2×) and 4
Raw data: number of fleas on Treated half of treated arena, per replicate ([1]; 24 Hours post introduction): 0 and 2 and 4 and 1 (2×)
Raw data: number of fleas on Untreated half of treated arena, per replicate ([1]; 24 Hours post introduction): 8 (2×) and 6 (2×) and 9
Calculated percent repellency (average ± SE) ([1]; nootkatone (98%) 0.5% in ethanol on filter paper, half treated, half untreated arena): 61.9 ± 15.0%
Time required for greater than 90% killing [2]: 24 h
Means Affected ([2]; 30 minutes post introduction): 0.0%
Means Dead ([2]; 30 minutes post introduction): 0.0%
Means KD ([2]; 30 minutes post introduction): 0.0%
Means Affected ([2]; 1 hour post introduction): 0.0%
Means Dead ([2]; 1 hour post introduction): 0.0%
Means KD ([2]; 1 hour post introduction): 0.0%
Means Affected ([2]; 4 hours post introduction): 22.0%
Means Dead ([2]; 4 hours post introduction): 0.0%
Means KD ([2]; 4 hours post introduction): 22.0%
Means Affected ([2]; 24 hours post introduction): 100.0%
Means Dead ([2]; 24 hours post introduction): 100%
Means KD ([2]; 24 hours post introduction): 0.0%
Means Dead ([2]; 24 hours post introduction, listed as nootkatone): 100%
Average repellency compared with 20% DEET (FIG. 2) (Aedes aegypti mosquitoes): repellency similar to that of 20% DEET; also recorded: comparable repellency
Time required for greater than 90% killing [3]: 72 h
Means Affected ([3]; 30 minutes post introduction): 0.0%
Means Dead ([3]; 30 minutes post introduction): 0.0%
Means KD ([3]; 30 minutes post introduction): 0.0%
Means Affected ([3]; 1 hour post introduction): 0.0%
Means Dead ([3]; 1 hour post introduction): 0.0%
Means KD ([3]; 1 hour post introduction): 0.0%
Means Affected ([3]; 4 hours post introduction): 0.0%
Means Dead ([3]; 4 hours post introduction): 0.0%
Means KD ([3]; 4 hours post introduction): 0.0%
Means Affected ([3]; 24 hours post introduction): 83.3%
Means Dead ([3]; 24 hours post introduction): 0.0%
Means KD ([3]; 24 hours post introduction): 83.3%
Means Affected ([3]; 48 hours post introduction): 86.7%
Means Dead ([3]; 48 hours post introduction): 86.7%
Means KD ([3]; 48 hours post introduction): 0.0%
Means Affected ([3]; 72 hours post introduction): 90.0%
Means Dead ([3]; 72 hours post introduction): 90%
Means KD ([3]; 72 hours post introduction): 0.0%
Time required for greater than 90% killing [4]: 30 min
Means Affected ([4]; 30 minutes post introduction): 100.0%
Means Dead ([4]; 30 minutes post introduction): 100% and 94.0%
Means KD ([4]; 30 minutes post introduction): 6.0%
Repellency (conclusion in words) [5, 6]: highly repellent
Raw data: number of termites on Treated strip of treated tube, per replicate [5, 7]: 0
Raw data: number of termites on Untreated strip of treated tube, per replicate [5, 7]: 10
Calculated percent repellency (average ± SE) ([5]; nootkatone (98%) 0.5% in ethanol on filter paper strips, one treated, one untreated, 24 hours): 100.0 ± 0.0%
